Reference: article PMC7827406, “Structure–Activity Relationship (SAR) Study of Spautin-1 to Entail the Discovery of Novel NEK4 Inhibitors” (International Journal of Molecular Sciences, 2021)
Where two headings read alike, the source gives them in different places.

Tests used:
Experiment in all cases: biochemical
Design in all cases: Eurofins KinaseProfiler full panel at Km ATP, residual kinase activity (%) relative to DMSO
Lyn(h) = Lyn(h) (Homo sapiens, UniProt P07948)
How it was run: (§1)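 Compounds screened at 10 µM in radiometric kinase activity assays at Km ATP, reported as remaining kinase activity (%). A KINOMEscan competition-binding screen at 10 µM measured DNA-tagged kinase retained on immobilized active-site ligand by qPCR.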

EphA7(h) = EphA7(h) (Homo sapiens, UniProt Q15375)
Chain of EphA7(h) (Q15375 whole entry): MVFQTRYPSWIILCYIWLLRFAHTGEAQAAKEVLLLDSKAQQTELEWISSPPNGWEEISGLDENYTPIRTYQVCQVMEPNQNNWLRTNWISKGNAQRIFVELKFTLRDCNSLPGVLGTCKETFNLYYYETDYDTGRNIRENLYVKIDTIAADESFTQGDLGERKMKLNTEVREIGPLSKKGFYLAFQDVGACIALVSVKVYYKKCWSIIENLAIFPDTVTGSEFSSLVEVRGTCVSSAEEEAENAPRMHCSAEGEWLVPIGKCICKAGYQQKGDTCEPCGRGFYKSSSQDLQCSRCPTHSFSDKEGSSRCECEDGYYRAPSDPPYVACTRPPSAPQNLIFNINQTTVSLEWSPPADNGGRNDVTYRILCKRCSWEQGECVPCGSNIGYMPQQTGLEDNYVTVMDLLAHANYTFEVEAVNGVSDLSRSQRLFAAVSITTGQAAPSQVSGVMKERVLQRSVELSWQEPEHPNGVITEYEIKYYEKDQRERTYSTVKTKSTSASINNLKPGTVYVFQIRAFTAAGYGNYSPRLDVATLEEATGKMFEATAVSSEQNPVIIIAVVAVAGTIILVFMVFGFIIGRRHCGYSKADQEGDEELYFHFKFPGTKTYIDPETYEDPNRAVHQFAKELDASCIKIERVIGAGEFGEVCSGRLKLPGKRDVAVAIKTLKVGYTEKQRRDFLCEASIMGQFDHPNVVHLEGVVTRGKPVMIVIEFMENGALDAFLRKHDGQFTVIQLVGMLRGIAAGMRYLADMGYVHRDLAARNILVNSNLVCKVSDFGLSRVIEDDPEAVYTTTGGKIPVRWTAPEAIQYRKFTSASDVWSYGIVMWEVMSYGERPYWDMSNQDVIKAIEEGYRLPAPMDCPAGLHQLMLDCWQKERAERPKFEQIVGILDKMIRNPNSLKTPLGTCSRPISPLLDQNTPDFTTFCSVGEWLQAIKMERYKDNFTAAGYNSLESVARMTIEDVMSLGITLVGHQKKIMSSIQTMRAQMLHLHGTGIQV
How it was run: as §1

ARK5(h) = target: T1, ARK5(h) (Homo sapiens, UniProt O60285)
T1 construct: gene NUAK1
T1 sequence (O60285 1-661): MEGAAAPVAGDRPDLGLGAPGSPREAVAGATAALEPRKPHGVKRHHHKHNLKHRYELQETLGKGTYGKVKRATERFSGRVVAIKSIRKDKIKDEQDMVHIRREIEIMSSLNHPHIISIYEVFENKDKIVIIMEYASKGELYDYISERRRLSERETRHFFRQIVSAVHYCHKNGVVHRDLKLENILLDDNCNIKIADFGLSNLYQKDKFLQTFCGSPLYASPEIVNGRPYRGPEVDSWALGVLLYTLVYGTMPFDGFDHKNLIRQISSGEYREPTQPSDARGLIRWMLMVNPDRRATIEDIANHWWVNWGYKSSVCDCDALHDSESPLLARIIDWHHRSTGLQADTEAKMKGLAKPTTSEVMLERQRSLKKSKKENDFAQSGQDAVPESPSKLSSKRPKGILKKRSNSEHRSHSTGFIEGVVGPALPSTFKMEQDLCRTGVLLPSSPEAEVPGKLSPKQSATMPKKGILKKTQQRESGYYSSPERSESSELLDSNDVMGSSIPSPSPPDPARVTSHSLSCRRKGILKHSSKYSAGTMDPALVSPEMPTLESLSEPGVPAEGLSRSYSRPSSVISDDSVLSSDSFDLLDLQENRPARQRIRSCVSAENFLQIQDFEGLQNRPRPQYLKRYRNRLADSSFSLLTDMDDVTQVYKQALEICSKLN
How it was run: as §1

Fes(h) = Fes(h) (Homo sapiens, UniProt P07332)
Chain of Fes(h) (P07332 whole entry): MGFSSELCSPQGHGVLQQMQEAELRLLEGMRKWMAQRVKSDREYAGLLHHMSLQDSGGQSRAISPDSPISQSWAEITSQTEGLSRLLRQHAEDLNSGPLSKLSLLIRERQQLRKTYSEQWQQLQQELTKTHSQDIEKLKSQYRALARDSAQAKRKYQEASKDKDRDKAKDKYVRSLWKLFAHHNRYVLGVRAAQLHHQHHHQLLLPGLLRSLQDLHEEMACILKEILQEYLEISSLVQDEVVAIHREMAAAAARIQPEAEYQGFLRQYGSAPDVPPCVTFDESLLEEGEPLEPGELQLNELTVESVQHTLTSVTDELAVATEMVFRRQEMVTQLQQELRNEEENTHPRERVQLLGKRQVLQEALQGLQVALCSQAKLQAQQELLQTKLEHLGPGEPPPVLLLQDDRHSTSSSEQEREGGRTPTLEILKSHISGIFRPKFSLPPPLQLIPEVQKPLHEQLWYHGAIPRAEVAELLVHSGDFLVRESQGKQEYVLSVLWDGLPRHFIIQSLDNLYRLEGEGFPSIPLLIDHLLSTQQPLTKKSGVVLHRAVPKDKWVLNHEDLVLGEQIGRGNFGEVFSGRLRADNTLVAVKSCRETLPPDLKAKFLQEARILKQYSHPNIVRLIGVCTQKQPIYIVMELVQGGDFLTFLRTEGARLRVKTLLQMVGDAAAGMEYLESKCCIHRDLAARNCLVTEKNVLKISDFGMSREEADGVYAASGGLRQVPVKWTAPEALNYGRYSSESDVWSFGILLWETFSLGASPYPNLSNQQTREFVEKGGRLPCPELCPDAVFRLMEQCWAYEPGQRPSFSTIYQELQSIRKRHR
How it was run: as §1

MST4(h) = target: T2, MST4(h) (Homo sapiens, UniProt Q9P289)
T2 construct: gene STK26
T2 sequence (Q9P289 whole entry): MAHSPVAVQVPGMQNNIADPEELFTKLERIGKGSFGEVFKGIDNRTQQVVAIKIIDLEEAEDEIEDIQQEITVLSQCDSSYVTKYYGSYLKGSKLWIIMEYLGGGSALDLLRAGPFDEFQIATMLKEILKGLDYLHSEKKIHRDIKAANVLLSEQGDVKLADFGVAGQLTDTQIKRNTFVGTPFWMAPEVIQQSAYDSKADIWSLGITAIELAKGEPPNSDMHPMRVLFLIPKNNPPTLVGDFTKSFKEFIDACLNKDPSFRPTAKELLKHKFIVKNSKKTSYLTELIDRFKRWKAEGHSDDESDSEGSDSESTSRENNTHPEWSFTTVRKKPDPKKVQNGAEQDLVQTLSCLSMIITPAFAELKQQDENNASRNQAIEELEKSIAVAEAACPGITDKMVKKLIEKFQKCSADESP
How it was run: as §1

LOK(h) = target: T3, LOK(h) (Homo sapiens, UniProt O94804)
T3 construct: gene STK10
T3 sequence (O94804 whole entry): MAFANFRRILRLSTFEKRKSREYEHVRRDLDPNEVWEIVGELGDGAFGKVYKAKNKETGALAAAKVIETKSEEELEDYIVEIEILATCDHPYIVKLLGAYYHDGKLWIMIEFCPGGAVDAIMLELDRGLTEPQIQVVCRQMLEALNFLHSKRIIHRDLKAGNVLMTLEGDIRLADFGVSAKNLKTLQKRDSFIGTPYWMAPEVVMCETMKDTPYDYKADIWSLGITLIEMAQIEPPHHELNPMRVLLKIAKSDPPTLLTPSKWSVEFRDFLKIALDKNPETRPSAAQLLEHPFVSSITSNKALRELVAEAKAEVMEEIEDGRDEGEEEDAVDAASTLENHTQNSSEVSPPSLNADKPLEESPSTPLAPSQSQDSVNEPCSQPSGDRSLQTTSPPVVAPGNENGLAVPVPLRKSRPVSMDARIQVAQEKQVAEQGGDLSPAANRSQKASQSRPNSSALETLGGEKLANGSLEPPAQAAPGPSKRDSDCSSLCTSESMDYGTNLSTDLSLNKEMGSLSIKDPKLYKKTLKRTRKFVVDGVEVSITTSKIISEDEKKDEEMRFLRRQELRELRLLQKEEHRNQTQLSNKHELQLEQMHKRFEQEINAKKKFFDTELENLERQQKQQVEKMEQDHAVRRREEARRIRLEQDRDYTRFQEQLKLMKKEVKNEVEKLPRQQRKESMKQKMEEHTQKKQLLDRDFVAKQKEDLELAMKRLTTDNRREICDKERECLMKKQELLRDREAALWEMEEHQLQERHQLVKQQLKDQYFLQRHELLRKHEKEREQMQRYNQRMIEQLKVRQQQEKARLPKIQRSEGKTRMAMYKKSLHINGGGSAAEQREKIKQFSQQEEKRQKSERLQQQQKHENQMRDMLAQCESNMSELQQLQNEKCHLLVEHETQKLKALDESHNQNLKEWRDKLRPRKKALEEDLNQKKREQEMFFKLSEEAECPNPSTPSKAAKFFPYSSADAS
How it was run: as §1

Tie2(Y897S)(h) = target: T4, Tie2(Y897S)(h) (Homo sapiens, UniProt Q02763, Y897S)
T4 construct: gene TEK
How it was run: as §1

MSSK1(h) = target: T5, MSSK1(h) (Homo sapiens, UniProt Q9UPE1)
T5 construct: gene SRPK3
T5 sequence (Q9UPE1 whole entry): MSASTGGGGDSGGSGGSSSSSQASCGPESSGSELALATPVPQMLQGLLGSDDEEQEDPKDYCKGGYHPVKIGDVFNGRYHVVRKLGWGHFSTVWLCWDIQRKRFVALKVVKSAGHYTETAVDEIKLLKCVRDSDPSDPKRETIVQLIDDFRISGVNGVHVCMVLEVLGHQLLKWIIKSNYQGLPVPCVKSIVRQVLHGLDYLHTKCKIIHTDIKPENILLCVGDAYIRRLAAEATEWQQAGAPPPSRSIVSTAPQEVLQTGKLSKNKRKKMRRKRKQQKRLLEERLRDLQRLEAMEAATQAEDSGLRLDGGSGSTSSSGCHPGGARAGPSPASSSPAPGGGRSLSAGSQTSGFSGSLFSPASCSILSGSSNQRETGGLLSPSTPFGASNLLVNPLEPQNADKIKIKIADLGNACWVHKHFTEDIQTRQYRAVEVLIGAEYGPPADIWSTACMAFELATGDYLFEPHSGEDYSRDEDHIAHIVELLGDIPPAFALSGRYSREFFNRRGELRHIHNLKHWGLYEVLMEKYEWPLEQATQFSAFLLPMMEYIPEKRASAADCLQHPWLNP
How it was run: as §1

Abl (Q252H) (h) = target: T6, Abl (Q252H) (h) (Homo sapiens, UniProt P00519, Q252H)
T6 construct: gene ABL1
How it was run: as §1

[1] = read-out: Residual activity (%) Spautin-1 5aa
[2] = read-out: Residual activity (%) 5as
[3] = read-out: Residual activity (%) 5at
[4] = read-out: Residual activity (%) 5ay

Chain of Lyn(h) (P07948 whole entry): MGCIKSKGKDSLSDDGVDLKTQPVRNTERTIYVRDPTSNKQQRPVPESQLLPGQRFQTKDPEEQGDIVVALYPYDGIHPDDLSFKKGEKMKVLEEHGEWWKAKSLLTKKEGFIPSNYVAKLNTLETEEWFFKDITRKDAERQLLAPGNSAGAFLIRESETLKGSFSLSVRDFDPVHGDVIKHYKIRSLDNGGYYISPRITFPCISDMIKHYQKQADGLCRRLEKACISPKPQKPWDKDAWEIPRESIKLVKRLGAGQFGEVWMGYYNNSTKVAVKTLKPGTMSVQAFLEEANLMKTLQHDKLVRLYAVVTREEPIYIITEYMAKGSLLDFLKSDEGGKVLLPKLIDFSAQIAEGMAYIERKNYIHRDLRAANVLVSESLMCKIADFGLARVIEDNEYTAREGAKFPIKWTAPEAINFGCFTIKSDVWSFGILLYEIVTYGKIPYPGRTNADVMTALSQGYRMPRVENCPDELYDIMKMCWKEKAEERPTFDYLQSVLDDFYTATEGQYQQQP

Fc1ccc(CNc2ncnc3ccc(F)cc23)cc1 [5aa, 6-Fluoro-N-(4-fluorobenzyl)-4-Quinazolinamine]
remaining activity at 10 µM (Lyn(h); [1]): 103%
remaining activity at 10 µM (EphA7(h); [1]): 100%
remaining activity at 10 µM (ARK5(h); [1]): 99%
remaining activity at 10 µM (Fes(h); [1]): 91%
remaining activity at 10 µM (MST4(h); [1]): 58%
remaining activity at 10 µM (LOK(h); [1]): 91%
remaining activity at 10 µM (Tie2(Y897S)(h); [1]): 88%
remaining activity at 10 µM (MSSK1(h); [1]): 85%
remaining activity at 10 µM (Abl (Q252H) (h); [1]): 104%

Fc1ccc(CCNc2ncnc3ccc(F)cc23)cc1 [5as, 6-Fluoro-N-[2-(4-Fluorophenyl)Ethyl]-4-Quinazolinamine]
remaining activity at 10 µM (Lyn(h); [2]): 89%
remaining activity at 10 µM (EphA7(h); [2]): 84%
remaining activity at 10 µM (ARK5(h); [2]): 101%
remaining activity at 10 µM (Fes(h); [2]): 92%
remaining activity at 10 µM (MST4(h); [2]): 81%
remaining activity at 10 µM (LOK(h); [2]): 81%
remaining activity at 10 µM (Tie2(Y897S)(h); [2]): 94%
remaining activity at 10 µM (MSSK1(h); [2]): 91%
remaining activity at 10 µM (Abl (Q252H) (h); [2]): 104%

Fc1ccc2ncnc(NCCc3ccc(Cl)cc3)c2c1 [5at, N-[2-(4-Chlorophenyl)Ethyl]-6-Fluoro-4-Quinazolinamine]
remaining activity at 10 µM (Lyn(h); [3]): 91%
remaining activity at 10 µM (EphA7(h); [3]): 87%
remaining activity at 10 µM (ARK5(h); [3]): 105%
remaining activity at 10 µM (Fes(h); [3]): 81%
remaining activity at 10 µM (MST4(h); [3]): 72%
remaining activity at 10 µM (LOK(h); [3]): 87%
remaining activity at 10 µM (Tie2(Y897S)(h); [3]): 85%
remaining activity at 10 µM (MSSK1(h); [3]): 95%
remaining activity at 10 µM (Abl (Q252H) (h); [3]): 88%

COc1ccc2ncnc(Nc3cccc(F)c3)c2c1 [5ay, N-(3-Fluorophenyl)-6-Methoxy-4-Quinazolinamine]
remaining activity at 10 µM (Lyn(h); [4]): 80%
remaining activity at 10 µM (EphA7(h); [4]): 90%
remaining activity at 10 µM (ARK5(h); [4]): 93%
remaining activity at 10 µM (Fes(h); [4]): 93%
remaining activity at 10 µM (MST4(h); [4]): 64%
remaining activity at 10 µM (LOK(h); [4]): 35%
remaining activity at 10 µM (Tie2(Y897S)(h); [4]): 78%
remaining activity at 10 µM (MSSK1(h); [4]): 81%
remaining activity at 10 µM (Abl (Q252H) (h); [4]): 80%
